Each structure is given as a SMILES string.

This assay addresses T1, Equilibrative nucleoside transporter 1 (Homo sapiens, UniProt Q99808).
T1 sequence (Q99808 whole entry): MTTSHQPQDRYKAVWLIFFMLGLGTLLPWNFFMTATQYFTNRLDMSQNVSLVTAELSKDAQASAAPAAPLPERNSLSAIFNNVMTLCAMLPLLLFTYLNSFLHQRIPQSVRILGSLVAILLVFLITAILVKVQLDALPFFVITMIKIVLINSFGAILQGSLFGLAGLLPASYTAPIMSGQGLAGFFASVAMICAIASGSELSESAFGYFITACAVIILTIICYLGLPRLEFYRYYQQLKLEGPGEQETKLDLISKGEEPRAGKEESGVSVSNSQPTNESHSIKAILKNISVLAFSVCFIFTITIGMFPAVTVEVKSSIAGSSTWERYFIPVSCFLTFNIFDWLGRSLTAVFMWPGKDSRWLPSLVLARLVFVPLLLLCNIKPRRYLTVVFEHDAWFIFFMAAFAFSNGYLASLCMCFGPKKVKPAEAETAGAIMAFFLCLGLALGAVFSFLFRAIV
Description: Binding affinity to ENT1 transporter.
What is called IC50 is the concentration that gives 50% inhibition. Read a low IC50 as greater potency in that assay. On to `O=[N+]([O-])c1cc(CNc2ncnc3c2ncn3[C@@H]2O[C@H](CO)[C@@H](O)[C@H]2O)ccc1Cl`, for which the concentration for half-maximal inhibition (IC50) was 0.708 µM. To `O=[N+]([O-])c1cccc2c1CCN(c1ncnc3c1ncn3[C@@H]1O[C@H](CO)[C@@H](O)[C@H]1O)C2` belongs 3.02 µM.

On to `OC[C@H]1O[C@@H](n2cnc3c(CSc4ccccc4Cl)ncnc32)[C@H](O)[C@@H]1O`, for which the concentration for half-maximal inhibition (IC50) is 1.78 µM. `OC[C@H]1O[C@@H](n2cnc3c(NCc4ccco4)ncnc32)[C@H](O)[C@@H]1O` [KINETIN RIBOSIDE]: the IC50 was 36.3 µM. As for `Cc1cccc(CSc2nc(N)nc3c2ncn3[C@@H]2O[C@H](CO)[C@@H](O)[C@H]2O)n1`, the half-inhibitory concentration (IC50) is 11500 µM. For `OC[C@H]1O[C@@H](n2cnc3c(CSc4ccc(Cl)cc4Cl)ncnc32)[C@H](O)[C@@H]1O` the value was 0.0776 µM. To `OC[C@H]1O[C@@H](n2cnc3c(CSc4cccc(C(F)(F)F)c4)ncnc32)[C@H](O)[C@@H]1O` belongs 0.331 µM.

Compound `COC(=O)c1ccc(SCc2ncnc3c2ncn3[C@@H]2O[C@H](CO)[C@@H](O)[C@H]2O)cc1` gave an IC50 of 0.813 µM. In the case of `Cc1ccc(CNc2ncnc3c2ncn3[C@@H]2O[C@H](CO)[C@@H](O)[C@H]2O)cc1[N+](=O)[O-]`, the half-inhibitory concentration (IC50) is 1.17 µM. The IC50 values of the last two compounds are within 1.5-fold of each other. To `Cc1ccc([N+](=O)[O-])c(CNc2ncnc3c2ncn3[C@@H]2O[C@H](CO)[C@@H](O)[C@H]2O)c1` belongs 1.29 µM; to `O=[N+]([O-])c1ccc(CNc2ncnc3c2ncn3[C@@H]2O[C@H](CCl)[C@@H](O)[C@H]2O)cc1`, 0.107 µM.

With `Nc1nc(SCc2ccccc2F)c2ncn([C@@H]3O[C@H](CO)[C@@H](O)[C@H]3O)c2n1`, the IC50 is 4.79 µM. To `OC[C@H]1O[C@@H](n2cc(I)c3c(Cl)ncnc32)[C@H](O)[C@@H]1O` belongs 77.6 µM. `O=[N+]([O-])c1ccc(O)c(CSc2ncnc3c2ncn3[C@@H]2O[C@H](CO)[C@@H](O)[C@H]2O)c1` gave an IC50 of 0.0331 µM. Regarding `OC[C@H]1O[C@@H](n2cnc3c(Sc4ccccc4)ncnc32)[C@H](O)[C@@H]1O`, the 50% inhibitory concentration (IC50) was 91.2 µM. With `O=[N+]([O-])c1cc(Cl)ccc1CNc1ncnc2c1ncn2[C@@H]1O[C@H](CO)[C@@H](O)[C@H]1O`, the IC50 is 46.8 µM. In the case of `Cc1ccc2ccccc2c1CSc1ncnc2c1ncn2[C@@H]1O[C@H](CO)[C@@H](O)[C@H]1O`, the IC50 was 115 µM. Against the preceding compound, the IC50 is about 2.5-fold higher.

Turning to `Nc1nc(SCc2ccc([N+](=O)[O-])cc2)c2ncn([C@@H]3O[C@H](CO)[C@@H](O)[C@H]3O)c2n1`, the IC50 is 0.0214 µM. To `CCCCn1cnc2c(SCc3ccccn3)nc(N)nc21` belongs 52.5 µM; to `CCCn1cnc2c(SCc3ccccn3)nc(N)nc21`, 91.2 µM. For `CC(C)c1ccc(CSc2ncnc3c2ncn3[C@@H]2O[C@H](CO)[C@@H](O)[C@H]2O)cc1`, the half-inhibitory concentration (IC50) is 4.79 µM. In turn, `O=[N+]([O-])c1ccc2c(c1)CN(c1ncnc3c1ncn3[C@@H]1O[C@H](CO)[C@@H](O)[C@H]1O)CC2` had an IC50 of 0.0055 µM. `COc1ncnc2c1ccn2[C@@H]1O[C@H](CO)[C@@H](O)[C@H]1O` showed an IC50 of 339 µM. Compared with the last compound, the IC50 is about 62000-fold higher. `O=[N+]([O-])c1ccc(CNc2ncnc3c2ncn3[C@@H]2O[C@H](CO)[C@@H](O)[C@H]2O)c(Cl)c1` gave an IC50 of 0.347 µM. `O=[N+]([O-])c1ccc2c(c1)CCN(c1ncnc3c1ncn3[C@@H]1O[C@H](CO)[C@@H](O)[C@H]1O)C2` had an IC50 of 0.182 µM. Against the preceding compound, the IC50 is about 1.9-fold lower.

As to `Cc1cc(CNc2ncnc3c2ncn3[C@@H]2O[C@H](CO)[C@@H](O)[C@H]2O)ccc1[N+](=O)[O-]`, the IC50 is 0.0871 µM. Against the preceding compound, the IC50 is about 2.1-fold lower. Consider `CC(C)CCNc1ncnc2[nH]ncc12`, for which the half-maximal inhibitory concentration (IC50) is 234 µM. To `CCC(C)Sc1nc(N)nc2c1ncn2[C@@H]1O[C@H](CO)[C@@H](O)[C@H]1O` (some centres undefined) belongs 63.1 µM; to `OC[C@H]1O[C@@H](n2cnc3c(SCc4ccccc4)ncnc32)[C@H](O)[C@@H]1O` [6-BENZYLTHIOINOSINE], 1.7 µM.

On to `OC[C@H]1O[C@@H](n2cnc3c(SC4CCCCC4)ncnc32)[C@H](O)[C@@H]1O`, for which the IC50 is 6.31 µM. This IC50 is about 3.7-fold higher than that of the compound before. `Cc1ccc(CSc2ncnc3c2ncn3[C@@H]2O[C@H](CO)[C@@H](O)[C@H]2O)cc1` showed a 50% inhibitory concentration (IC50) of 0.457 µM.

In turn, `OC[C@H]1O[C@@H](n2cnc3c(CSc4ccc(F)cc4)ncnc32)[C@H](O)[C@@H]1O` showed an IC50 of 0.158 µM.

Compound `Nc1nc(SCc2cccc([N+](=O)[O-])c2)c2ncn([C@@H]3O[C@H](CO)[C@@H](O)[C@H]3O)c2n1` gave an IC50 of 0.178 µM. For `CC(=O)c1ccccc1Sc1nc(N)nc2c1ncn2[C@@H]1O[C@H](CO)[C@@H](O)[C@H]1O`, the IC50 was 447 µM. Against the preceding compound, the IC50 is about 2500-fold higher. As for `CCCn1cnc2c(SC(C)C)nc(N)nc21`, the IC50 was 145 µM. `OC[C@H]1O[C@@H](n2cnc3c(CSc4ccc(I)cc4)ncnc32)[C@H](O)[C@@H]1O` showed an IC50 of 0.0692 µM. As to `OC[C@H]1O[C@@H](n2cnc3c(CSc4cccc(Cl)c4)ncnc32)[C@H](O)[C@@H]1O`, the half-maximal inhibitory concentration (IC50) was 0.282 µM. As to `Nc1nc(SCc2ccc(Br)cc2)c2ncn([C@@H]3O[C@H](CO)[C@@H](O)[C@H]3O)c2n1`, the IC50 is 0.813 µM. `OC[C@H]1O[C@@H](n2cnc3c(CSc4ccc(Br)cc4)ncnc32)[C@H](O)[C@@H]1O` gave an IC50 of 0.178 µM.

Consider `Nc1nc(SCc2ccccn2)c2ncn([C@@H]3O[C@H](CO)[C@@H](O)[C@H]3O)c2n1`, for which the IC50 was 34.7 µM.

`CSc1ncnc2c1ncn2[C@@H]1O[C@H](CO)[C@@H](O)[C@H]1O` gave a half-maximal inhibitory concentration (IC50) of 229 µM. To `OC[C@H]1O[C@@H](n2cnc3c(N4CCc5ccccc5C4)ncnc32)[C@H](O)[C@@H]1O` belongs 1.82 µM; to `Nc1ncnc2c1ncn2[C@@H]1O[C@H](COCCOCCNc2ncnc3c2ncn3[C@@H]2O[C@H](CO)[C@@H](O)[C@H]2O)[C@@H](O)[C@H]1O`, 912 µM. To `CSc1ncnc2c1c(Br)cn2[C@@H]1O[C@H](CO)[C@@H](O)[C@H]1O` belongs 115 µM; to `OC[C@H]1O[C@@H](n2cnc3c(CSc4cccc(I)c4)ncnc32)[C@H](O)[C@@H]1O`, 0.245 µM.

Regarding `OC[C@H]1O[C@@H](n2cnc3c(CSc4ccc(Cl)c(Cl)c4)ncnc32)[C@H](O)[C@@H]1O`, the IC50 was 0.224 µM. Consider `Nc1ccc(CNc2ncnc3c2ncn3[C@@H]2O[C@H](CO)[C@@H](O)[C@H]2O)cc1`, for which the IC50 is 4.17 µM.

As to `CC(C)Nc1ncnc2c1ncn2[C@@H]1O[C@H](CO)[C@@H](O)[C@H]1O`, the IC50 was 257 µM.

In turn, `CC(C)Sc1nc(N)nc2c1ncn2[C@@H]1O[C@H](CO)[C@@H](O)[C@H]1O` had an IC50 of 191 µM. In turn, `Nc1nc(SCc2ccccc2)c2ncn([C@@H]3O[C@H](CO)[C@@H](O)[C@H]3O)c2n1` showed a 50% inhibitory concentration (IC50) of 5.25 µM. On to `O=[N+]([O-])c1ccc(CNc2ncnc3c2ncn3[C@@H]2O[C@H](CO)[C@@H](O)[C@@H]2O)cc1`, for which the 50% inhibitory concentration (IC50) was 0.0316 µM. Against the preceding compound, the IC50 is about 170-fold lower. `CN(Cc1ccc([N+](=O)[O-])cc1)c1ncnc2c1ncn2[C@@H]1O[C@H](CO)[C@@H](O)[C@H]1O` gave a 50% inhibitory concentration (IC50) of 0.309 µM. In turn, `CC(C)(Sc1ncnc2c1ncn2[C@@H]1O[C@H](CO)[C@@H](O)[C@H]1O)c1ccccc1` had a half-inhibitory concentration (IC50) of 21.4 µM. For `CC(C)CSc1nc(N)nc2c1ncn2[C@@H]1O[C@H](CO)[C@@H](O)[C@H]1O` the value was 8.71 µM; for `Nc1nc(SCCc2ccccc2)c2ncn([C@@H]3O[C@H](CO)[C@@H](O)[C@H]3O)c2n1`, 16.2 µM; for `OC[C@H]1O[C@@H](n2ccc3c(S)ncnc32)[C@H](O)[C@@H]1O`, 389 µM. For the compound `OC[C@H]1O[C@@H](n2ccc3c(N4CCCCC4)ncnc32)[C@H](O)[C@@H]1O`, the IC50 is 195 µM. This IC50 lies about 2-fold lower than the previous one. `Cc1c(CNc2ncnc3c2ncn3[C@@H]2O[C@H](CO)[C@@H](O)[C@H]2O)cccc1[N+](=O)[O-]` showed an IC50 of 0.427 µM. Consider `O=[N+]([O-])c1ccc(CNc2ncnc3c2ncn3[C@H]2C[C@H](O)[C@@H](CO)O2)cc1`, for which the IC50 was 0.0158 µM. For the compound `OC[C@H]1O[C@@H](n2cnc3c(CSc4ccccc4Br)ncnc32)[C@H](O)[C@@H]1O`, the IC50 was 2.4 µM. The compound `C[C@H]1O[C@@H](n2cnc3c(NCc4ccc([N+](=O)[O-])cc4)ncnc32)[C@H](O)[C@@H]1O` had an IC50 of 0.0219 µM. `c1ccc(CCNc2ncnc3[nH]ncc23)cc1` gave a half-inhibitory concentration (IC50) of 100 µM. The compound `OC[C@H]1O[C@@H](n2cnc3c(SCC4CCCCC4)ncnc32)[C@H](O)[C@@H]1O` gave a half-inhibitory concentration (IC50) of 1.55 µM. `Nc1nc(SCc2ccc(F)cc2)c2ncn([C@@H]3O[C@H](CO)[C@@H](O)[C@H]3O)c2n1` had an IC50 of 1.15 µM. Regarding `CCSc1nc(N)nc2c1ncn2[C@@H]1O[C@H](CO)[C@@H](O)[C@H]1O`, the half-inhibitory concentration (IC50) is 162 µM.

Compound `CSc1nc(N)nc2c1ncn2[C@@H]1O[C@H](CO)[C@@H](O)[C@H]1O` showed an IC50 of 204 µM. For the compound `CSc1ncnc2c1ncn2C1CCCCO1` (centres undefined), the concentration for half-maximal inhibition (IC50) is 275 µM. For `C=CCSc1ncnc2c1ncn2[C@@H]1O[C@H](CO)[C@@H](O)[C@H]1O` the value was 13.8 µM; for `N#Cc1ccc(SCc2ncnc3c2ncn3[C@@H]2O[C@H](CO)[C@@H](O)[C@H]2O)cc1`, 0.0813 µM; for `OC[C@H]1O[C@@H](n2cnc3c(CSc4cccc(F)c4)ncnc32)[C@H](O)[C@@H]1O`, 0.2 µM. `CCCSc1nc(N)nc2c1ncn2CC(C)C` had a half-inhibitory concentration (IC50) of 63.1 µM.

`OC[C@H]1O[C@@H](n2cnc3c(CSc4ccc(OC(F)(F)F)cc4)ncnc32)[C@H](O)[C@@H]1O`: the IC50 was 0.123 µM. To `O=[N+]([O-])c1cccc2c1CN(c1ncnc3c1ncn3[C@@H]1O[C@H](CO)[C@@H](O)[C@H]1O)CC2` belongs 3.63 µM; to `OC[C@H]1O[C@@H](n2cnc3c(CSc4cccc(Br)c4)ncnc32)[C@H](O)[C@@H]1O`, 0.363 µM.

Source of the values: ChEMBL document CHEMBL1145549, “Constrained NBMPR analogue synthesis, pharmacophore mapping and 3D-QSAR modeling of equilibrative nucleoside transporter 1 (ENT1) inhibitory activity” (Bioorg Med Chem, 2008).
